How the values were obtained:
[1] = Amount of γ-CEHC excreted in bile after oral γ-tocotrienol or γ-tocopherol in vitamin E-deficient rats; format: in vivo, Sprague-Dawley strain male rats; conditions: oral 10 mg/0.5 ml in stripped corn oil, bile collected for 24 hours, versus γ-tocopherol, FIG. 3
Procedure: (§1) Seven-week-old Sprague-Dawley strain male rats, purchased from Nippon Clare Co., Ltd., were preliminarily bred with solid feed CE-2 (Nippon Clare Co., Ltd.) for 1 week and then bred with vitamin E-deficient feed for 4 weeks. The rats were placed in a stainless steel cage/rat, and the breeding room was maintained at a temperature of 22±1° C. in 50 % humidity. The animals were allowed feed and water ad libitum.
(§2) The feed was prepared by adding 10% corn oil (stripped corn oil) from which vitamin E had been removed by molecular distillation, to vitamin E-deficient powdery feed.
(§3) The bred vitamin E-deficient-rats were divided into 2 groups and fasted for 17 hours, and each rat in one group was orally given 10 mg/0.5 ml γ-tocotrienol dissolved in stripped corn oil, while as the control, each rat in the other group was orally given 10 mg/0.5 ml γ-tocopherol in analogous manner. After the administration, the rats in a urine collection group were placed in a metabolic cage/rat, and their urine was collected at 6-hours intervals for 48 hours during which a collection vessel was cooled on dry ice. The rats in a bile collection group were anesthetized with Nembutal in 2 hours after the administration in consideration of absorption time, and the abdomens of the rats were opened with their back fixed under anesthesia and a canula was inserted into the bile duct. […]

[2] = Amount of γ-CEHC excreted in urine after oral γ-tocotrienol or γ-tocopherol in vitamin E-deficient rats; format: in vivo, Sprague-Dawley strain male rats; conditions: oral 10 mg/0.5 ml in stripped corn oil, total over 48 hours, versus γ-tocopherol in the same amount, FIG. 2
Procedure: as §1, §2, §3

[3] = Effect of γ-tocotrienol on urine volume and on excretion of sodium and potassium into urine; format: in vivo, SD strain male rats; conditions: for volume of urine, corrected with creatinine: high-salt feed groups, FIG. 4
Procedure: Seven-week-old SD strain male rats (n=20) were preliminarily bred with solid feed and divided into 2 groups. One group was given vitamin E-deficient feed (AIN-76) and used as a control group. The other group was given high-salt feed prepared by adding 5% common salt to 1 kg vitamin E-deficient feed and used as a group given high-salt (high-Na) feed. Each animal in both the groups was given 20 g feed/day for 1 week and 25 g feed/day during a period of from the second to fourth weeks. 150 ml of purified water was given as drinking water, and the remainder of the water was measured. After 4 weeks, each group was further divided into 2 groups, and each rat in one group was given 10 mg γ-tocotrienol (control +γ-tocotrienol, High-Na+γ-tocotrienol) dissolved in stripped corn oil while the other group i.e. the control was given stripped corn oil (control, High-Na) for 3 consecutive days respectively, and after administration, their urine, while being frozen on dry ice, was collected at 6-hours intervals for 24 hours. The amounts of sodium and potassium in the urine were determined by the atomic absorption method and the amount of γ-CEHC by the ECD-HPLC method.

CC(C)=CCC/C(C)=C/CC/C(C)=C/CCC1(C)CCc2cc(O)c(C)c(C)c2O1 (stereo not drawn) [γ-tocotrienol, 2,7,8-trimethyl-2-(4,8,12-trimethyltrideca-3,7,11-trienyl)chroman-6-ol]
γ-CEHC excreted into the bile [1]: larger in the group given γ-tocotrienol than in the group given γ-tocopherol
amount of γ-CEHC excreted in urine for a period of up to 48 hours [2]: significantly higher than in the group given γ-tocopherol
amount of potassium excreted in urine ([3]; 4 groups (control and high-salt feed, with or without 10 mg γ-tocotrienol), atomic absorption method, FIG. 6): the influence of γ-tocotrienol administration was not observed
volume of urine, corrected with creatinine ([3]; 10 mg γ-tocotrienol for 3 consecutive days versus stripped corn oil, over 24 hours): tended to be larger in the group given γ-tocotrienol
volume of urine, corrected with creatinine ([3]; 10 mg γ-tocotrienol versus stripped corn oil, 6 to 12 hours after the administration): significantly increased for 6 to 12 hours after the administration
amount of sodium excreted in urine ([3]; high-salt group, 10 mg γ-tocotrienol versus stripped corn oil, atomic absorption method, FIG. 5): significantly larger amount of excreted sodium for a period of up to 12 hours after the administration
